Experimental data reported in patent US9938261B2, “Heterocyclic compounds and methods of use thereof” (AMBIT BIOSCIENCES CORPORATION, priority 2011, dated 2018).
Read-outs that look alike come from different tables or passages of the source.

Target: CSF1R (Homo sapiens, UniProt P07333)
Assay: HEK293 CSF1R phosphorylation MSD assay
Type: cell-based
Set-up: expressed in transfected cells; host or cells: HEK293
Details: read-out: HEK293 pCSF1R M-CSF MSD:IC50
In short: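 HEK293 cells expressing CSF1R-FKBP were pretreated 2 h at 37° C with 9 half-log concentrations of compound (0.5% DMSO final), then stimulated 5 min with 50 ng/mL human M-CSF. Lysates captured on biotin-FK506 plates; phosphotyrosine detected by MSD electrochemiluminescence. IC50 versus DMSO, averaged from duplicate plates.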

[1] = HEK293 cells, M-CSF stimulated CSF1R phosphorylation, MSD
[2] = 2 h compound, human M-CSF 50 ng/mL for 5 min

Chain of CSF1R (P07333 20-972): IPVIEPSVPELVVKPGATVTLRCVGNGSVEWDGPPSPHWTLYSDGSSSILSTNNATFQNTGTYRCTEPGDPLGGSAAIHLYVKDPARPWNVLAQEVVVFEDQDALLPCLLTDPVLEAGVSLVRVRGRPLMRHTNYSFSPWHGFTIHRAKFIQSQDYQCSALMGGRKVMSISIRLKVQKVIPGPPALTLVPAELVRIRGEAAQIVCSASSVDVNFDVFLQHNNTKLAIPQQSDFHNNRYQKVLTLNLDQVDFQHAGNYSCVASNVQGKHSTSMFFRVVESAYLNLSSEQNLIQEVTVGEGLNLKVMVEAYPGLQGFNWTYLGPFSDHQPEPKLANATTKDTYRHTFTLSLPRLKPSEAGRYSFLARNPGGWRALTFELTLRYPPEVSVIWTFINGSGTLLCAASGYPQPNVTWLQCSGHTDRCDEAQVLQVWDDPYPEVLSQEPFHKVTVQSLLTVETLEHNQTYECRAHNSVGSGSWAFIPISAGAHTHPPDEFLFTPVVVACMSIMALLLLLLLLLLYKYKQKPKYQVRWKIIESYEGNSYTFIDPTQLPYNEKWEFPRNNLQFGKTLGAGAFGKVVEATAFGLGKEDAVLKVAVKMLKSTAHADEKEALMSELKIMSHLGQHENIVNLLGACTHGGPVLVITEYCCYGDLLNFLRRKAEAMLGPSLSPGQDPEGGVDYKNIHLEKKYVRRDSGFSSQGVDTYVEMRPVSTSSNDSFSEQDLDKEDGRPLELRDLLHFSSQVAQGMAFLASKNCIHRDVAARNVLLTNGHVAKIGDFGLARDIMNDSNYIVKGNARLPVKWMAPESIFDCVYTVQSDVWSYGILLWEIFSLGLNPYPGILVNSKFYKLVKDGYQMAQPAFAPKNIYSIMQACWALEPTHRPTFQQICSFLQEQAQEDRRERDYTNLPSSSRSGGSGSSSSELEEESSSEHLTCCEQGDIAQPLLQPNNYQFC

IC50 [1] [µM]	IC50 [2] [µM]	Compound
0.05 to 0.2	–	Fc1cnc2c(c1)ncn2Cc1ccc2nc(N[C@@H]3CCCC[C@@H]3Cl)sc2c1 [Example 219, N-((1R,2S)-2-chlorocyclohexyl)-6-((6-fluoro-3H-imidazo[4,5-b]pyridin-3-yl)methyl)benzo[d]thiazol-2-amine]
0.05 to 0.2	–	O[C@@H]1CCCC[C@H]1Nc1nc2ccc(Cn3cnc4cc(C5=CCOCC5)cc(F)c43)cc2s1 [Example 208, (1R,2R)-2-((6-((5-(3,6-dihydro-2H-pyran-4-yl)-7-fluoro-1H-benzo[d]imidazol-1-yl)methyl)benzo[d]thiazol-2-yl)amino)cyclohexanol]
–	0.05 to 0.2	CS(=O)(=O)O.O[C@@H]1CCCC[C@H]1Nc1nc2ccc(Cn3cnc4cccnc43)cc2s1 [Example 3, (1R,2R)-2-((6-((3H-imidazo[4,5-b]pyridin-3-yl)methyl)benzo[d]thiazol-2-yl)amino)cyclohexanol methanesulfonic acid]
0.05 to 0.2	–	O[C@@H]1CCCC[C@H]1Nc1nc2ccc(Cc3cnc4cc(-n5nccn5)ccn34)cc2s1 [Example 215, (1R,2R)-2-((6-((7-(2H-1,2,3-triazol-2-yl)imidazo[1,2-a]pyridin-3-yl)methyl)benzo[d]thiazol-2-yl)amino)cyclohexanol]
–	0.05 to 0.2	O[C@@H]1CCCC[C@H]1Nc1nc2ccc(Cn3cnc4cc(Br)ccc43)cc2s1 [Example 100, (1R,2R)-2-((6-((5-bromo-1H-benzo[d]imidazol-1-yl)methyl)benzo[d]thiazol-2-yl)amino)cyclohexanol]
–	≤ 0.05	CC(=O)c1cnc2c(c1)ncn2Cc1ccc2nc(N[C@@H]3CCCC[C@H]3O)sc2c1 [Example 73, 1-(3-((2-(((1R,2R)-2-hydroxycyclohexyl)amino)benzo[d]thiazol-6-yl)methyl)-3H-imidazo[4,5-b]pyridin-6-yl)ethanone]
–	0.05 to 0.2	ON=C1CCCC[C@H]1Nc1nc2ccc(Cn3cnc4cccnc43)cc2s1 [Example 58, (R)-2-((6-((3H-imidazo[4,5-b]pyridin-3-yl)methyl)benzo[d]thiazol-2-yl)amino)cyclohexanone oxime]
–	≤ 0.05	COc1cc2ncn(Cc3ccc4nc(N[C@@H]5CCCC[C@H]5O)sc4c3)c2cc1-c1cnn(C)c1 [Example 52, (1R,2R)-2-((6-((5-methoxy-6-(1-methyl-1H-pyrazol-4-yl)-1H-benzo[d]imidazol-1-yl)methyl)benzo[d]thiazol-2-yl)amino)cyclohexanol]
–	0.05 to 0.2	COc1cc2ncn(Cc3ccc4nc(N[C@@H](C)C5CCCCC5)sc4c3)c2cc1OC [Example 33, (S)—N-(1-cyclohexylethyl)-6-((5,6-dimethoxy-1H-benzo[d]imidazol-1-yl)methyl)benzo[d]thiazol-2-amine]
–	0.2 to 0.5	CC(=O)NCc1cnc2c(c1)ncn2Cc1ccc2nc(N[C@@H]3CCCC[C@H]3O)sc2c1 [Example 99, N-((3-((2-(((1R,2R)-2-hydroxycyclohexyl)amino)benzo[d]thiazol-6-yl)methyl)-3H-imidazo[4,5-b]pyridin-6-yl)methyl)acetamide]
–	0.05 to 0.2	O=C1CCCC[C@H]1Nc1nc2ccc(Cn3cnc4cccnc43)cc2s1 [Example 54, (R)-2-((6-((3H-imidazo[4,5-b]pyridin-3-yl)methyl)benzo[d]thiazol-2-yl)amino)cyclohexanone]
–	0.05 to 0.2	CC(=O)Nc1cn(Cc2ccc3nc(N[C@@H]4CCCC[C@H]4O)sc3c2)cn1 [Example 101, N-(1-((2-(((1R,2R)-2-hydroxycyclohexyl)amino)benzo[d]thiazol-6-yl)methyl)-1H-imidazol-4-yl)acetamide]
–	> 0.5	O=C(O)c1cnc2c(c1)ncn2Cc1ccc2nc(N[C@@H]3CCCC[C@H]3O)sc2c1 [Example 81, 3-((2-(((1R,2R)-2-hydroxycyclohexyl)amino)benzo[d]thiazol-6-yl)methyl)-3H-imidazo[4,5-b]pyridine-6-carboxylic acid]
0.05 to 0.2	–	C=Cc1cc(F)c2c(c1)ncn2Cc1ccc2nc(N[C@@H]3CCCC[C@H]3O)sc2c1 [Example 207, (1R,2R)-2-((6-((7-fluoro-5-vinyl-1H-benzo[d]imidazol-1-yl)methyl)benzo[d]thiazol-2-yl)amino)cyclohexanol]
0.05 to 0.2	–	N#Cc1cc(F)c2c(c1)ncn2Cc1ccc2nc(N[C@@H]3CCCC[C@H]3O)sc2c1 [Example 206, 7-fluoro-1-((2-(((1R,2R)-2-hydroxycyclohexyl)amino)benzo[d]thiazol-6-yl)methyl)-1H-benzo[d]imidazole-5-carbonitrile]
≤ 0.05	–	O[C@@H]1CCCC[C@H]1Nc1nc2ccc(Cn3cnc4cc(-c5cc[nH]n5)ccc43)cc2s1 [Example 211, (1R,2R)-2-((6-((5-(1H-pyrazol-3-yl)-1H-benzo[d]imidazol-1-yl)methyl)benzo[d]thiazol-2-yl)amino)cyclohexanol]

IC50 [1] [µM]	IC50 [2] [µM]	Compound
0.2 to 0.5	–	CC(O)c1ccn2c(Cc3ccc4nc(N[C@@H]5CCCC[C@H]5O)sc4c3)cnc2c1 (stereo partly drawn) [Example 201, (1R,2R)-2-((6-((7-(1-hydroxyethyl)imidazo[1,2-a]pyridin-3-yl)methyl)benzo[d]thiazol-2-yl)amino)cyclohexanol]
–	0.2 to 0.5	OC[C@H](Nc1nc2ccc(Cn3cnc4cccnc43)cc2s1)C1CCCCC1 [Example 64, (R)-2-((6-((3H-imidazo[4,5-b]pyridin-3-yl)methyl)benzo[d]thiazol-2-yl)amino)-2-cyclohexylethanol]
0.05 to 0.2	–	O[C@@H]1CCCC[C@H]1Nc1nc2ccc(Cn3cnc4cc(Br)cc(F)c43)cc2s1 [Example 203, (1R,2R)-2-((6-((5-bromo-7-fluoro-1H-benzo[d]imidazol-1-yl)methyl)benzo[d]thiazol-2-yl)amino)cyclohexanol]
–	0.05 to 0.2	COc1ccn2c(Cc3ccc4nc(N[C@@H]5CCCC[C@H]5O)sc4c3)cnc2c1 [Example 44, (1R,2R)-2-((6-((7-methoxyimidazo[1,2-a]pyridin-3-yl)methyl)benzo[d]thiazol-2-yl)amino)cyclohexanol]
–	0.05 to 0.2	CS(=O)(=O)c1cnc2c(c1)ncn2Cc1ccc2nc(N[C@@H]3CCCC[C@H]3O)sc2c1 [Example 74, (1R,2R)-2-((6-((6-(methylsulfonyl)-3H-imidazo[4,5-b]pyridin-3-yl)methyl)benzo[d]thiazol-2-yl)amino)cyclohexanol]
–	> 0.5	CNC(=O)c1cn(Cc2ccc3nc(N[C@@H]4CCCC[C@H]4O)sc3c2)cn1 [Example 37, 1-((2-(((1R,2R)-2-hydroxycyclohexyl)amino)benzo[d]thiazol-6-yl)methyl)-N-methyl-1H-imidazole-4-carboxamide]
–	≤ 0.05	O[C@@H]1CCCC[C@H]1Nc1nc2ccc(Cn3cnc4cc(N5CCOCC5)cnc43)cc2s1 [Example 97, (1R,2R)-2-((6-((6-morpholino-3H-imidazo[4,5-b]pyridin-3-yl)methyl)benzo[d]thiazol-2-yl)amino)cyclohexanol]
–	≤ 0.05	COc1cc2ncn(Cc3ccc4nc(NCC5CCCCC5)oc4c3)c2cc1OC [Example 35, N-(cyclohexylmethyl)-6-((5,6-dimethoxy-1H-benzo[d]imidazol-1-yl)methyl)benzo[d]oxazol-2-amine]
–	≤ 0.05	C=Cc1cnc2c(c1)ncn2Cc1ccc2nc(N[C@@H]3CCCC[C@H]3O)sc2c1 [Example 98, (1R,2R)-2-((6-((6-vinyl-3H-imidazo[4,5-b]pyridin-3-yl)methyl)benzo[d]thiazol-2-yl)amino)cyclohexanol]
–	0.05 to 0.2	COc1cc2ncn(Cc3ccc4nc(N[C@@H]5CCCC[C@H]5O)oc4c3)c2cc1OC [Example 34, (1R,2R)-2-((6-((5,6-dimethoxy-1H-benzo[d]imidazol-1-yl)methyl)benzo[d]oxazol-2-yl)amino)cyclohexanol]
–	0.05 to 0.2	COc1cc2c(cc1Br)ncn2Cc1ccc2nc(N[C@@H]3CCCC[C@H]3O)sc2c1 [Example 41, (1R,2R)-2-((6-((5-bromo-6-methoxy-1H-benzo[d]imidazol-1-yl)methyl)benzo[d]thiazol-2-yl)amino)cyclohexanol]
–	≤ 0.05	CCc1cnc2c(c1)ncn2Cc1ccc2nc(N[C@@H]3CCCC[C@H]3O)sc2c1 [Example 102, (1R,2R)-2-((6-((6-ethyl-3H-imidazo[4,5-b]pyridin-3-yl)methyl)benzo[d]thiazol-2-yl)amino)cyclohexanol]
–	≤ 0.05	N#Cc1ccc2ncn(Cc3ccc4nc(N[C@@H]5CCCC[C@H]5O)sc4c3)c2n1 [Example 87, 3-((2-(((1R,2R)-2-hydroxycyclohexyl)amino)benzo[d]thiazol-6-yl)methyl)-3H-imidazo[4,5-b]pyridine-5-carbonitrile]
0.05 to 0.2	–	C=Cc1ccn2c(Cc3ccc4nc(N[C@@H]5CCCC[C@H]5O)sc4c3)cnc2c1 [Example 216, (1R,2R)-2-((6-((7-vinylimidazo[1,2-a]pyridin-3-yl)methyl)benzo[d]thiazol-2-yl)amino)cyclohexanol]
–	≤ 0.05	Cn1cc(-c2cnc3c(c2)ncn3Cc2ccc3nc(N[C@@H]4CCCC[C@H]4O)sc3c2)cn1 [Example 39, (1R,2R)-2-((6-((6-(1-methyl-1H-pyrazol-4-yl)-3H-imidazo[4,5-b]pyridin-3-yl)methyl)benzo[d]thiazol-2-yl)amino)cyclohexanol]

Compound	IC50 [1] [µM]	IC50 [2] [µM]
either (1R,2R)-2-((6-((3H-imidazo[4,5-b]pyridin-3-yl)methyl)benzo[d]thiazol-2-yl)amino)-1-methylcyclohexanol or (1S,2R)-2-((6-((3H-imidazo[4,5-b]pyridin-3-yl)methyl)benzo[d]thiazol-2-yl)amino)-1-methylcyclohexanol [Example 60]	–	0.05 to 0.2
either (1R,2R)-1-((6-((4-(1-methyl-1H-pyrazol-4-yl)-1H-imidazol-1-yl)methyl)benzo[d]thiazol-2-yl)amino)-2,3-dihydro-1H-inden-2-ol or (1R,2R)-1-((6-((5-(1-methyl-1H-pyrazol-4-yl)-1H-imidazol-1-yl)methyl)benzo[d]thiazol-2-yl)amino)-2,3-dihydro-1H-inden-2-ol [Example 83]	–	0.05 to 0.2
